Test results published in patent US9415040B2 (priority 2008, dated 2016).

What was measured:
[1] = test system: Chromobacterium violaceum
[2] = test system: LuxN F202A; conditions: even at 500 μM AI-1, EC50 could not be assigned
[3] = test system: LuxN S205P; conditions: even at 500 μM AI-1, EC50 could not be assigned
[4] = test system: LuxN P226T; conditions: even at 500 μM AI-1, EC50 could not be assigned
[5] = test system: LuxN E233A; conditions: even at 500 μM AI-1, EC50 could not be assigned
[6] = test system: LuxN F163A/R245L/S184N/G271D; conditions: quadruple mutant LuxN F163A/R245L/S184N/G271D; EC50 could not be determined

N[C@H]1CCOC1=O [HSL]
Median survival of C. elegans [1]: 4 days

CC(O)CC(=O)NC1CCOC1=O (stereo not drawn) [AI-1, 3-hydroxybutanoyl homoserine lactone]
Light production phenotype with AI-1 [2]: dark phenotype | Light production phenotype with AI-1 [3]: dark phenotype | Light production phenotype with AI-1 [4]: dark phenotype | Light production phenotype with AI-1 [5]: dark phenotype | Light production phenotype with AI-1 [6]: constitutively bright at all AI-1 concentrations
